Measurements published in US10426841B2, “Combination of drugs with protein-binding prodrugs” (VERGELL MEDICAL S.A., priority 2010, dated 2019).

Experiments:
[1] = test system: human ovarian cancer xenografts (A2780); assay: Antitumor efficacy and tolerability in the ovarian carcinoma A2780 xenograft model; conditions: for toxic death: 8 mice per group; for RTV day 30 (relative tumor volume): * significant to Doxorubicin; for antitumor efficacy (in words): doxorubicin 2×8 mg/kg up to day 30
Description: In order to evaluate the in vivo antitumor efficacy of a combination of doxorubicin with DOXO-EMCH in tumor-bearing mice, a direct comparison was made with a group treated with doxorubicin (2×8 mg/kg body weight) or DOXO-EMCH (3×24 mg/kg body weight doxorubicin equivalents) at their respective MTDs. For the combination, a lower dose of doxorubicin (3×4 mg/kg body weight) was combined with a lower dose of DOXO-EMCH (3×12 mg/kg body weight doxorubicin equivalents) wherein the DOXO-EMCH was administered 6 h prior to doxorubicin on the respective days of administration (cf. Table 1).
Experimental Procedure. […] For in vivo testing, female NMRI: nu/nu mice (Taconic, Denmark) were used. The mice were held in individually ventilaged cages (IVC) under sterile and standardized environmental conditions (25±2° C. room temperature, 50±10% relative humidity, 12 hour light-dark-rhythm). They received autoclaved food and bedding (ssniff, Soest, Germany) and acidified (pH 4.0) drinking water ad libitum. A2780 tumor fragments were transplanted subcutaneously (s.c.) into the left flank region of anaesthetized mice (40 mg/kg i.p. Radenarkon, Asta Medica, Frankfurt, Germany) on day 0. Mice were randomly distributed to the experimental groups (8 mice per group). When the tumors were grown to a palpable size, treatment was initiated. Mice were treated intravenously (i.v.) with either glucose phosphate buffer (10 mM sodium phosphate, 5% D-(+)-glucose, pH 5.8), doxorubicin (2×8 mg/kg body weight), or DOXO-EMCH (3×24 mg/kg body weight doxorubicin equivalents), or a combination of DOXO-EMCH (3×12 mg/kg body weight doxorubicin equivalents) and doxorubicin (3×4 mg/kg body weight) with a 6 hour interval on the day of administration. DOXO-EMCH was dissolved in 10 mM sodium phosphate, 5% D-(+)-glucose, pH 5.8. The compounds were injected intravenously at weekly intervals on days 6 and 13 and on days 6, 13 and 20 for the remaining compounds. The injection volume was 0.2 ml/20 g body weight. Tumor size was measured twice weekly with a caliper-like instrument in two dimensions. Individual tumor volumes (V) were calculated by the formula V=(length×[width]2)/2 and related to the values on the first day of treatment (relative tumor volume, RTV). Statistical analysis was performed with the U-test (Mann and Whitney) with p<0.05. The body weight of mice was determined every 3 to 4 days.

[2] = Maximum tolerated dose in nude mice; type: in vivo; conditions: 2×12 mg/kg body weight
[3] = i.v., doxorubicin 8 mg/kg days 6, 13, DOXO-EMCH 24 mg/kg days 6, 13, 20, combination 4 + 12 mg/kg days 6, 13, 20
[4] = DOXO-EMCH 3×24 mg/kg, combination DOXO-EMCH 3×12 + doxorubicin 3×4 mg/kg

SMILES: COc1cccc2c1C(=O)c1c(O)c3c(c(O)c1C2=O)CC(O)(C(CO)=NNC(=O)CCCCCN1C(=O)C=CC1=O)CC3OC1CC(N)C(O)C(C)O1 (stereo not drawn) [DOXO-EMCH, 6-maleimidocaproyl(hydrazone) derivative of doxorubicin]
- toxic death [1, 3]: 0
- body weight loss ([1]; DOXO-EMCH 3×24 mg/kg, after day 37, some animals died or were killed): over 30%
- duration of tumor remissions [1, 4]: up to 37 days
- RTV day 20 (relative tumor volume) [1, 3]: 0.2
- RTV day 30 (relative tumor volume) [1, 3]: 0.1*
- BWC [%] (body weight change) ([1]; day of value in brackets in the cell, i.v., doxorubicin 8 mg/kg days 6, 13, DOXO-EMCH 24 mg/kg days 6, 13, 20, combination 4 + 12 mg/kg days 6, 13, 20): −31 (d37) %
- antitumor efficacy (in words) [1, 4]: pronounced antitumor effect

SMILES: COc1cccc2c1C(=O)c1c(O)c3c(c(O)c1C2=O)C[C@@](O)(C(=O)CO)C[C@@H]3O[C@H]1C[C@H](N)[C@H](O)[C@H](C)O1 [Doxorubicin, doxorubicin, reference compound]
- toxic death [1, 3]: 0
- RTV day 20 (relative tumor volume) [1, 3]: 7.4
- RTV day 30 (relative tumor volume) [1, 3]: 23.9
- antitumor efficacy (in words) [1, 4]: moderate antitumor efficacy
- toxicity at doses higher than MTD [2]: unacceptable toxicity and mortality
